Values after ≈ are worked out from the molar mass of the structure shown. Where two headings read alike, the source gives them in different places. Where only a bound is given, the exact number is not on record here.

One data set concerns MB435. Kind of data set: Inhibition of cancer cell growth as measured by cell number, MB435. The format is cell-based. The settings on record: Homo sapiens, read-out: IC50, inhibition of cancer cell growth. The procedure:
(§1) After 48 hours exposure to test compounds, cells were fixed with trichloroacetic acid, and stained with Sulforhodamine B. After washing with trichloroacetic acid, bound dye was solubilized in 10 mM Tris base and optical density was determined using plate reader. Under conditions of the assay the optical density is proportional to the number of cells in the well. […] The test procedure is described in details by Philip Skehan et. al, J.Natl. Canc.

For a further data set, the system named is SW620. As to the kind of experiment: Inhibition of cancer cell growth as measured by cell number, SW620. The format is cell-based. The following applies: Homo sapiens, read-out: IC50, inhibition of cancer cell growth. The procedure:
as §1

The test system of a further data set is A431. As to the kind of experiment: Inhibition of cancer cell growth as measured by cell number, A431. The following applies: Homo sapiens, read-out: IC50, inhibition of cancer cell growth. The format is cell-based. The procedure:
as §1

For the next data set, the system named is A2780DDP. Kind of data set: Inhibition of cancer cell growth as measured by cell number, A2780DDP. The format is cell-based. The settings on record: Homo sapiens, read-out: IC50, inhibition of cancer cell growth. The procedure:
as §1

In a further data set the test system is MCF7. As to the kind of experiment: Inhibition of cancer cell growth as measured by cell number, MCF7. The following applies: Homo sapiens, read-out: IC50, inhibition of cancer cell growth. Type of data set: cell-based. The procedure:
as §1

The next data set deals with A2780S. Kind of data set: Inhibition of cancer cell growth as measured by cell number, A2780S. The format is cell-based. The following applies: Homo sapiens, read-out: IC50, inhibition of cancer cell growth. The procedure:
as §1

The next data set relates to LOX. As to the kind of experiment: Inhibition of cancer cell growth as measured by cell number, LOX. The format is cell-based. The following applies: Homo sapiens, read-out: IC50, inhibition of cancer cell growth. The procedure:
as §1

The subject of the next data set is SKBR3. Kind of data set: Inhibition of cancer cell growth as measured by cell number, SKBR3. Type of data set: cell-based. The following applies: Homo sapiens, read-out: IC50, inhibition of cancer cell growth. The procedure:
as §1

For data set [1], the system named is human epidermoid tumors (A431). The format is in vivo, BALB/c nu/nu female mice. The settings on record: for % T/C / Relative Tumor Growth (RTG): days 1 through 10; for inhibition of tumor growth in vivo: in words. The procedure:
BALB/c nu/nu female mice (Charles River, Wilmington, Mass.) were used in the in vivo standard pharmacological test procedures. […] A unit of 5×10^6 cells were injected SC into mice. When tumors attained a mass of between 100 and 150 mg, the mice were randomized into treatment groups (day zero). Mice were treated IP or PO once a day either on days 1, 5, and 9 or on days 1 through 10 post staging with doses of either 80, 40 or 20, or 10 mg/kg/dose of the compound to be evaluated in 0.2% Klucel. Control animals received no drug. […] […] The %T/C (Tumor/Control) is determined by dividing the relative tumor growth of the treated group by the relative tumor growth of the placebo group and multiplying by 100.

For the compound `CCN(CC)CC=CC(=O)Nc1ccc2ncnc(Nc3cccc(Br)c3)c2c1` [Example 67, 4-Diethylamino-but-2-enoic acid [4-(3-bromo-phenylamino)-quinazolin-6-yl]-amide], the IC50 in the data set on MB435 (MB435, 48 hours exposure) came to 45 µg/mL (≈ 99 µM); in the data set on SW620 (SW-620, SW620, 48 hours exposure), 52 µg/mL (≈ 114 µM); in the data set with A431 (A-431, A431, 48 hours exposure), 0.01 µg/mL (≈ 0.022 µM); in the data set with A2780DDP (A2780DDP, 48 hours exposure), 43 µg/mL (≈ 94.6 µM); with MCF7 (MCF7, 48 hours exposure), 59 µg/mL (≈ 130 µM); with A2780S (48 hours exposure) it was 22 µg/mL (≈ 48.4 µM). The IC50 was 46 µg/mL (≈ 101 µM) with LOX (48 hours exposure) and below 0.01 µg/mL with SKBR3 (SK-BR-3, SKBR3, 48 hours exposure).

Turning to `CCN(CC)CC#CC(=O)Nc1ccc2ncnc(Nc3cccc(Br)c3)c2c1` [Example 25, 4-Diethylamino-but-2-ynoic acid[4-(3-bromo-phenylamino)-quinazolin-6-yl]-amide], the “% T/C” value in data set [1] (40 PO, Day 7 (TABLE 5)) was 71%; in [1] (40 PO, Day 14 (TABLE 5)), 33%; in data set [1] (40 PO, Day 21 (TABLE 5)) it was 40%; in data set [1] (40 PO, Day 28 (TABLE 5)), 52%. Also, the “Relative Tumor Growth (RTG)” value in [1] (40 PO, Day 7, control 2.76 (TABLE 5)) worked out at 1.96; in data set [1] (40 PO, Day 14, control 7.07 (TABLE 5)) it was 2.33; in [1] (40 PO, Day 21, control 11.75 (TABLE 5)), 4.68; in [1] (40 PO, Day 28, control 17.13 (TABLE 5)), 8.84. Besides, in data set [1], the “inhibition of tumor growth in vivo” value is “effective inhibitor of tumor growth in vivo”. In addition, in [1] (mouse, in vivo, po), the “S/T (No. Survivors/No. Treated)” value is 4/5.

Take `CN(C)CC#CC(=O)Nc1ccc2ncnc(Nc3cccc(Br)c3)c2c1` [Example 21, 4-Dimethylamino-but-2-ynoic acid [4-(3-bromo-phenylamino)-quinazolin-6-yl]-amide]: the “% T/C” value amounted to 56% in [1] (10 mg/kg/dose PO, Day 16); 42% in data set [1] (10 mg/kg/dose PO, Day 21); 42% in data set [1] (10 mg/kg/dose PO, Day 28); 100% in data set [1] (20 mg/kg/dose PO, Day 7); 82% in data set [1] (20 mg/kg/dose PO, Day 16); 72% in data set [1] (20 mg/kg/dose PO, Day 28). Also, the “% T/C” value was found to be 79% in data set [1] (40 mg/kg/dose PO, Day 7) and 84% in data set [1] (40 mg/kg/dose PO, Day 16). The “inhibition of tumor growth in vivo” value in data set [1] was “effective inhibitor of tumor growth in vivo”.

For the compound `CN(C)CC=CC(=O)Nc1ccc2ncnc(Nc3cccc(Br)c3)c2c1` [Example 66, 4-Dimethylamino-but-2-enoic acid [4-(3-bromo-phenylamino)-quinazolin-6-yl]-amide], the IC50 with MB435 (48 h) amounted to 5.4 µg/mL (≈ 12.7 µM); in the data set on SW620 (SW-620, 48 h), 5.1 µg/mL (≈ 12 µM); in the data set on A431 (A-431, 48 h), 0.007 µg/mL (≈ 0.0164 µM); in the data set on A2780DDP (48 h), 5.1 µg/mL (≈ 12 µM); in the data set on MCF7 (MCF7, 48 h), 7.6 µg/mL (≈ 17.8 µM); in the data set with A2780S (48 h), 3.9 µg/mL (≈ 9.15 µM). For the same compound, the IC50 is 4.9 µg/mL (≈ 11.5 µM) in the data set on LOX (48 h) and below 0.01 µg/mL in the data set with SKBR3 (SK-BR-3, 48 h).

Consider `CC(C)(C)[Si](C)(C)OCC#CC(=O)Nc1ccc2ncnc(Nc3cccc(Br)c3)c2c1` [Example 15, 4-(tert-Butyl-dimethyl-silanyloxy)-but-2-ynoic acid [4-(3-bromo-phenylamino)-quinazolin-6-yl]-amide], for which the IC50 in the data set with MB435 (48 h) came to 0.42 µg/mL (≈ 0.821 µM); in the data set with SW620 (SW-620, 48 h) it was 0.02 µg/mL (≈ 0.0391 µM); in the data set on A431 (A-431, 48 h), 0.04 µg/mL (≈ 0.0782 µM); in the data set with A2780DDP (48 h), 0.05 µg/mL (≈ 0.0978 µM); in the data set with MCF7 (MCF7, 48 h), 0.45 µg/mL (≈ 0.88 µM); in the data set on A2780S (48 h) it was 0.02 µg/mL (≈ 0.0391 µM). The IC50 with LOX (48 h) came to 0.03 µg/mL (≈ 0.0587 µM); in the data set on SKBR3 (SK-BR-3, 48 h), 0.38 µg/mL (≈ 0.743 µM).

As to `C=C(CN1CCOCC1)C(=O)Nc1ccc2ncnc(Nc3cccc(Br)c3)c2c1` [Example 63, N-[4-(3-Bromo-phenylamino)-quinazolin-6-yl]-2-morpholin-4-ylmethyl-acrylamide], the IC50 in the data set with MB435 (48 h) worked out at 4.5 µg/mL (≈ 9.61 µM); with SW620 (SW-620, 48 h) it was 5.5 µg/mL (≈ 11.7 µM); in the data set on A431 (A-431, 48 h), 0.6 µg/mL (≈ 1.28 µM); with A2780DDP (48 h), 4 µg/mL (≈ 8.54 µM); with MCF7 (MCF7, 48 h), 17 µg/mL (≈ 36.3 µM); with A2780S (48 h), 0.8 µg/mL (≈ 1.71 µM). Moreover, the IC50 with LOX (48 h) came to 3.9 µg/mL (≈ 8.33 µM); in the data set with SKBR3 (SK-BR-3, 48 h), 10 µg/mL (≈ 21.4 µM).

As usually defined, the IC50 is the concentration that gives 50% inhibition.

The record behind these values is US6251912A, “Substituted quinazoline derivatives” (American Cyanamid Company, priority 1998, dated 2001).
